In article PMC3914206:

Assays:
Type in all cases: binding
Settings in all cases: Compound Concentration 10 µM
panel of 442 kinases [1] = biological target: T1, panel of 442 kinases (Homo sapiens, UniProt P04626)
T1 construct: purchased KINOMEscan
Description: (§1) We assessed the selectivity of members of this scaffold using the KINOMEscan methodology across a near comprehensive panel of 442 kinases [[18,27]].

panel of 442 kinases [2] = biological target: T2, panel of 442 kinases (Homo sapiens, UniProt P51617)
T2 construct: purchased KINOMEscan
Description: as §1

panel of 442 kinases [3] = biological target: T3, panel of 442 kinases (Homo sapiens, UniProt P54646)
T3 construct: purchased KINOMEscan
Description: as §1

panel of 442 kinases [4] = biological target: T4, panel of 442 kinases (Homo sapiens, UniProt Q00536)
T4 construct: purchased KINOMEscan
Description: as §1

T4 sequence (Q00536 whole entry): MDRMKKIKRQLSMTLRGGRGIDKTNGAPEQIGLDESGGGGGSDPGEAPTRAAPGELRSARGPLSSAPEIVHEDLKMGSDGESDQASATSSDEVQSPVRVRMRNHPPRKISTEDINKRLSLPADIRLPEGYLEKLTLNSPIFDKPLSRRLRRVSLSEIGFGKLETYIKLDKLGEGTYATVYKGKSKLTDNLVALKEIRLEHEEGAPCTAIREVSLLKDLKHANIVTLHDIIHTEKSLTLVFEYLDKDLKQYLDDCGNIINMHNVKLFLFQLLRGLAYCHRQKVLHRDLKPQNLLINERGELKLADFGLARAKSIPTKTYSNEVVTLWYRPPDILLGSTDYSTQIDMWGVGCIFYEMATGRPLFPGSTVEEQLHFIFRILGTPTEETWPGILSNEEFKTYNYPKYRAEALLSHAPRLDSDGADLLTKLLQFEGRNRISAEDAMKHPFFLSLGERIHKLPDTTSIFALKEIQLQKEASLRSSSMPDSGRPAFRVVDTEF
T3 sequence (P54646 whole entry): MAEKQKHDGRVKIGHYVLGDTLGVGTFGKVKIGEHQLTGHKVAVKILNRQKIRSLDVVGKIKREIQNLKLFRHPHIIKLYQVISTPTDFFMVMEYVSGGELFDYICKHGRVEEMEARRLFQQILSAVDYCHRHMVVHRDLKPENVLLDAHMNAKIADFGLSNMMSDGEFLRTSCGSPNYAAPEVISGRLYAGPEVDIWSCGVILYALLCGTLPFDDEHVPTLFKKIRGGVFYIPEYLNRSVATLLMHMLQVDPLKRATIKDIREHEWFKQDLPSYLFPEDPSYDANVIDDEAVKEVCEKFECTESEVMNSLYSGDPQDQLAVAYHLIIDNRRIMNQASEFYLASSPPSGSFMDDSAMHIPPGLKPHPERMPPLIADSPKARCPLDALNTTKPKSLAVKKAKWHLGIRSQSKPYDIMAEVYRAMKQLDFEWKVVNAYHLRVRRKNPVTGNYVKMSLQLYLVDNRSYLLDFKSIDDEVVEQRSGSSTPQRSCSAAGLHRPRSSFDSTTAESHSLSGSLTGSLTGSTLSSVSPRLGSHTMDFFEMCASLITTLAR
T1 sequence (P04626 23-1255): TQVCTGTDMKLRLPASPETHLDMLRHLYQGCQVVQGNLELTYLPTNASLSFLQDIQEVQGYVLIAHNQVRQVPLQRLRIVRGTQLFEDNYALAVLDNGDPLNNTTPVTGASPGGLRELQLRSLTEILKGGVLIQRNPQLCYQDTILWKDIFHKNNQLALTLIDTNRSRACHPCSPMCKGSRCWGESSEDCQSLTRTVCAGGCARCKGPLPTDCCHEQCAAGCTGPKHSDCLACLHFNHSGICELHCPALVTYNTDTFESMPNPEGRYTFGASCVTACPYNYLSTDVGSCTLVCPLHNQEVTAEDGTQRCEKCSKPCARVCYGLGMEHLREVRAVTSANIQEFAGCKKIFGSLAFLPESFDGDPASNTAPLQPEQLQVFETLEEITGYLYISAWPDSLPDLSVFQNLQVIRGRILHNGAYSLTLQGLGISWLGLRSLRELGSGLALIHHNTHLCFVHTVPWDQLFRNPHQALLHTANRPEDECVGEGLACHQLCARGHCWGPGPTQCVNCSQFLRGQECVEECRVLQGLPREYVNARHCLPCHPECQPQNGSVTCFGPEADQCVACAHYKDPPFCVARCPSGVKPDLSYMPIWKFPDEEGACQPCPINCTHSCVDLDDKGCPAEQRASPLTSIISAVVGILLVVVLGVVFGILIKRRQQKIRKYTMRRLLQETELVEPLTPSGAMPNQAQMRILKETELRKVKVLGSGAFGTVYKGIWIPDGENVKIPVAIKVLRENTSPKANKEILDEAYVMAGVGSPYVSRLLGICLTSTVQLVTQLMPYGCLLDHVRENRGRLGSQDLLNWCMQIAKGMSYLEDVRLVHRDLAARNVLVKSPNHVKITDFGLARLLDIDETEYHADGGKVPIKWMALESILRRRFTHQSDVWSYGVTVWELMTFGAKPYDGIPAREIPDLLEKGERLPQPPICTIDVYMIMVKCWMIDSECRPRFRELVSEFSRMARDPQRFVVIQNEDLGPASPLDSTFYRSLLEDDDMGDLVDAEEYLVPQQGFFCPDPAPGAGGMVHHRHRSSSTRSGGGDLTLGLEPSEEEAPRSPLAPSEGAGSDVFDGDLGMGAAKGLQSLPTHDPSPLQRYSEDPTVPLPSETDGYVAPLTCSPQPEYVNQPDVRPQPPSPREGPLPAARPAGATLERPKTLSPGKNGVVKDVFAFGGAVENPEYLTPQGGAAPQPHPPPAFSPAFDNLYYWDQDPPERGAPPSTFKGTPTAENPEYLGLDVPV
T2 sequence (P51617 whole entry): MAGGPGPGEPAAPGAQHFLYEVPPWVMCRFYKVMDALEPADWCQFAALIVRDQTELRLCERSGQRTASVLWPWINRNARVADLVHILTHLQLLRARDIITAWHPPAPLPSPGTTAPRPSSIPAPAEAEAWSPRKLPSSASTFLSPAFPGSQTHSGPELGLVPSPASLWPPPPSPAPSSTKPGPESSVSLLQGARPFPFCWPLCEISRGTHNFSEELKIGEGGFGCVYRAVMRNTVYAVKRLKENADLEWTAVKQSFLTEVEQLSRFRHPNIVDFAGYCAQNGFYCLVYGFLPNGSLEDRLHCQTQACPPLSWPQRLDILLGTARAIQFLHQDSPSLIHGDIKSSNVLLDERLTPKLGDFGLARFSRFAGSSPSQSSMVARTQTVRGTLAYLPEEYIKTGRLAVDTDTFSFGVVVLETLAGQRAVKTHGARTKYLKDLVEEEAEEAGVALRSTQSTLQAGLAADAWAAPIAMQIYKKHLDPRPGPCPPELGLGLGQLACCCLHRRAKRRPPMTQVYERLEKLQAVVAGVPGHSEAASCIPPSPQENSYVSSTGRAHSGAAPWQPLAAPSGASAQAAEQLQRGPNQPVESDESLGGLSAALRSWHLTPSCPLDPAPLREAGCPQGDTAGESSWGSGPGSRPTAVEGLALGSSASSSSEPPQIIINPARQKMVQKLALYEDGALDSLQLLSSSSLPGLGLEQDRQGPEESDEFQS

In the case of `COc1cc(C(=O)N2CCC(N3CCN(C)CC3)CC2)ccc1Nc1ncc2c(n1)N(C)c1ccccc1C(=O)N2C` [15 (LRRK2-IN-1)], the “KINOMEscan: ERBB2” value (panel of 442 kinases [1]) is reported as 100, the “KINOMEscan: IRAK1” value (panel of 442 kinases [2]) is reported as 100 and the “KINOMEscan: AMPK-alpha2” value (panel of 442 kinases [3]) is reported as 66. For the same molecule, the “KINOMEscan: PCTK1” value (panel of 442 kinases [4]) was 96.

In the case of `CCOc1cc(C(=O)N2CCC(N3CCN(C)CC3)CC2)ccc1Nc1ncc2c(n1)N(C1CCCC1)c1ccccc1C(=O)N2C` [Compound 26], the “KINOMEscan: ERBB2” value (panel of 442 kinases [1]) is reported as 100, the “KINOMEscan: IRAK1” value (panel of 442 kinases [2]) is reported as 100 and the “KINOMEscan: AMPK-alpha2” value (panel of 442 kinases [3]) is reported as 100. The “KINOMEscan: PCTK1” value (panel of 442 kinases [4]) was 100.

`COc1cc(C(=O)N2CCC(N3CCN(C)CC3)CC2)ccc1Nc1ncc2c(n1)N1CCc3cccc(c31)C(=O)N2C` [Compound 24] was tested, and the “KINOMEscan: IRAK1” value (panel of 442 kinases [2]) was 95.

With `COc1cc(C(=O)N2CCC(N3CCN(C)CC3)CC2)ccc1Nc1ncc2c(n1)N(C1CCCC1)c1ccccc1C(=O)N2C` [Compound 25, 11-cyclopentyl-2-((2-methoxy-4-(4-(4-methylpiperazin-1-yl)piperidine-1-carbonyl)phenyl)amino)-5-methyl-5H-benzo[e]pyrimido[5,4-b][1,4]diazepin-6(11H)-one] the “KINOMEscan: ERBB2” value (panel of 442 kinases [1]) was 100, the “KINOMEscan: IRAK1” value (panel of 442 kinases [2]) was 89 and the “KINOMEscan: AMPK-alpha2” value (panel of 442 kinases [3]) was 76. For the same molecule, the “KINOMEscan: PCTK1” value (panel of 442 kinases [4]) was 100.
